Results as given in paper PMC4704819, “Honey Bee Allatostatins Target Galanin/Somatostatin-Like Receptors and Modulate Learning: A Conserved Function?” (PLoS ONE, 2016).
“Also recorded” adds a separate entry of the source. Where a SMILES comes first, the peptide text is derived from it. Bridges are numbered along the chain shown (N, C = ends).

Key:
[1] = biological target: T1, Apime-ASTC-R (Apis mellifera, UniProt A0A7M7GNE5); assay: Intracellular cAMP reporter assay, HEK293 cells expressing Apime-ASTC-R; format: cell-based; conditions: CRE-luciferase, IBMX, 10^-14 to 10^-3 M, Fig 5D-E, ASTCC effect at high concentrations (>10 μM)
T1 sequence (A0A7M7GNE5 1-423): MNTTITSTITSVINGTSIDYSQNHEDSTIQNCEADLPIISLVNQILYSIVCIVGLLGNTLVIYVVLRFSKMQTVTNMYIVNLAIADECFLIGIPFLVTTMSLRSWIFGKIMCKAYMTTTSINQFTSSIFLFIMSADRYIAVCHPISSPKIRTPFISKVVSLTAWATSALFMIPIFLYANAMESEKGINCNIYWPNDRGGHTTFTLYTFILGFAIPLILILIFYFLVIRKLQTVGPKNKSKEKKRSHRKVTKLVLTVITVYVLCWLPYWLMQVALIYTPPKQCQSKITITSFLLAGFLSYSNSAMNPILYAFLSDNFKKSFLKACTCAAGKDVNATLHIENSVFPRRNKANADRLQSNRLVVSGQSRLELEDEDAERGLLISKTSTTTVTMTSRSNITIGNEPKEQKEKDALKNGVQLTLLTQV
Experimental: (§1) For intracellular cAMP measurements, cells were bathed in trypsin EDTA and collected, then suspended in fresh DMEM. Transfections with pRK5-ApimeAstC-R, pRK5-ApimeAstA-R or empty pRK5 vector were carried out in 15 ml Falcon tubes. Transfection medium for HEK293 cells was prepared using the Lipofectamine LTX kit (Invitrogen) with 2.5 ml Opti-MEM® (Gibco), 12.5 μl Plus™ Reagent and 4 μg of ApimeASTC-R (or ApimeASTA-R, or empty) expression construct, and 2 μg of CRE(6x)-Luc plasmid. The luciferase ORF, downstream of six tandem repeats of a cyclic AMP responsive element (CRE), in front of a minimum collate promoter, was used as a reporter gene (this reporter plasmid has been used by others)
(§2) We followed a previousy published protocol: HEK293 cells in Dulbecco's Modified Eagles Medium nutrient mixture F12-Ham (DMEM/F12, Sigma–Aldrich) supplemented with 10% heat-inactivated fetal bovine serum (Gibco), 100 IU/ml penicillin, 100 μg/ml streptomycin (Gibco) were maintained in an incubator at 37°C with constant supply of 5% CO2, until they reached 60–80% confluence. Cells were then bathed in trypsin EDTA (Gibco) until rounded. The flask was then tapped to loosen the cells, which were subsequently washed off with 5 ml DMEM/F12. The cells were gently centrifuged at 800 rpm for 5 minutes and carefully suspended in fresh DMEM, which was divided in two for transfection with receptor constructs or empty vectors. After 5 min at room temperature, 30 μl LTX was added. After an incubation period of 30 min at room temperature, the DNA/LTX mix was added to the cells. The cells were then aliquoted (100 μl per well) into a clear bottom 96-well plate (Greiner bio-one #655090) and incubated overnight (37°C, 5% CO2).
(§3) Prior to measuring cAMP, the cell medium was removed by carefully inverting the 96-well plate on filter paper and quickly replaced with 100 μl of DMEM/F12 without phenol red (Invitrogen), but containing 200 μM 3-isobutyl-1-methylxanthine (IBMX, Sigma–Aldrich) to prevent cAMP breakdown, as well as drugs to be tested. In each experiment, some wells were used to measure basal levels of cAMP in the cells (negative control), while others were used to measure cAMP levels in cells exposed to 10 μM forskolin analogue (NKH-477, Sigma Aldrich, positive control). […] All cells were incubated at 37°C and 5% CO2 for 3–4 h to allow transcription of the reporter gene before 100 μl of freshly reconstituted Steadylite Plus™ substrate (PerkinElmer) was added to each well. The 96-well plate was then placed in the dark for 15 min before light emission resulting from luciferase enzymatic activity was recorded. Measurements lasting 0.2 s/well were taken every 55 s for 10 cycles using a FLUOstar Omega microplate reader (BMG Labtech). Results were analyzed by means of the Omega software packages and further processed by Excel and GraphPad Prism softwares. In order to facilitate comparisons across experiments, bioluminescence levels are expressed relative to those in mock-transfected cells (transfected with the vector devoid of the receptor sequence) untreated with NKH-477, which were arbitrarily set at 100.
(§4) To test this prediction, we expressed the two receptors separately in HEK293 cells together with the luciferase reporter gene, downstream of the cAMP response element, CRE, but without exogenous G proteins.

[2] = test system: mock-transfected HEK293 cells; assay: Intracellular cAMP reporter assay, mock-transfected HEK293 cells (empty vector); format: cell-based, human; conditions: CRE-luciferase, IBMX, ASTCC Fig 5F, ASTA and ASTC data not shown
Experimental: as §1, §2, §3, §4

[3] = test system: honey bees (Apis mellifera); assay: Sucrose responsiveness assessment; format: in vivo; conditions: 1μM; for sensitivity to sucrose vs control (GLM coefficient ± standard error) / sensitivity to water vs control (GLM coefficient ± standard error): injected 1h before test; for sensitivity to sucrose vs control (GLM coefficient ± standard error): sucrose 0.1–30%, ASTA p = 0.76, ASTC p = 0.55, ASTCC p = 0.13, N = 35, 49, 29 (Fig 10A); for sensitivity to water vs control (GLM coefficient ± standard error): ASTA p = 0.44, ASTC p = 0.30, ASTCC p = 0.22, N = 35, 49, 29
Experimental: The vehicle for allatostatins was a saline solution made of PBS containing the protease blocker, 1 mM PMSF (prepared from a 30mM stock solution in 100% ethanol, final concentration of ethanol 3.3%).
The allatostatins were injected into the head haemolymph after penetrating the median ocellus, either 1 hour before olfactory conditioning or sucrose responsiveness assessment, or immediately after olfactory conditioning. All injections were performed under a binocular microscope. A micromanipulator-controlled Hamilton syringe (Nanofil, equipped with a NF33BV2 needle, WPI) was used to inject approximately 200 nl of peptide solution. To make sure that the solution was properly injected, it was pushed out of the syringe so that a drop was visible and then the drop was put in contact with the haemolymph where it was quickly absorbed thanks to the respiratory movements of the bee. Any bee with excessive bleeding was discarded.
Since sucrose was presented diluted in water, bees were given water ad libitum immediately before testing to ensure that their responses would be elicited by sucrose only. We followed a published protocol: six sucrose solutions of increasing concentration (0.1%, 0.3%, 1%, 3%, 10% and 30%) were presented in succession to the antennae, interspersed with water stimulations to avoid sensitization. For each animal, the presence or absence of a proboscis extension response to each stimulus was recorded.
Functional data (receptor-mediated calcium, cAMP signals and binding) were plotted and regression curves were fitted using the GraphPad Prism software (San Diego, CA). The learning data were analyzed with generalized linear effects modeling (GLM) for binomial data using the R package lme4 [67]. Response levels recorded in the last conditioning trial were used to assess the effect of treatment on learning. For 1-hour memory and generalization tests, effects of allatostatin treatment were compared for each odor tested. Generalized linear mixed effects modeling (GLMM) was also used to analyze responsiveness to sucrose, with concentration and treatment as fixed factors and the bee identity and solution presented (either sucrose or water) as random factors. […] All statistics were generated in R [68].

| SMILES | effect on cAMP levels (bioluminescence), in words [1] | effect on cAMP levels (bioluminescence), in words ([1]; listed as ASTCC) | effect on cAMP levels (bioluminescence) in mock-transfected cells, in words [2] | effect on cAMP levels (bioluminescence) in mock-transfected cells, in words ([2]; listed as ASTCC) | responsiveness to sucrose or water / feeding, in words [3] | sensitivity to sucrose vs control (GLM coefficient ± standard error) [3] | sensitivity to water vs control (GLM coefficient ± standard error) [3] | effect on cAMP levels (bioluminescence), in words ([1]; listed as ASTC) | effect on cAMP levels (bioluminescence) in mock-transfected cells, in words ([2]; listed as ASTC) |
| --- | --- | --- | --- | --- | --- | --- | --- | --- | --- |
| CC(C)[C@@H]1NC(=O)[C@H](C)NC(=O)[C@H](CC(N)=O)NC(=O)[C@H](Cc2ccccc2)NC(=O)[C@H](Cc2ccc(O)cc2)NC(=O)[C@@H](NC(=O)[C@H](CCCNC(=N)N)NC(=O)[C@H](Cc2c[nH]c3ccccc23)NC(=O)[C@H](Cc2ccc(O)cc2)NC(=O)[C@@H](NC(=O)[C@H](CCCNC(=N)N)NC(=O)CNC(=O)[C@H](CCCCN)NC(=O)[C@H](C)NC(=O)[C@H](CCC(N)=O)NC(=O)CN)C(C)C)CSSC[C@@H](C(=O)N[C@@H](Cc2ccccc2)C(=O)O)NC(=O)[C@H]([C@@H](C)O)NC1=O [Apime-ASTCC] (H-GQAKGRVYWRCYFNAVTCF-OH; disulfide 11-18; N-terminus assumed) | increased bioluminescence levels at high concentrations; also recorded: small increase in intracellular cAMP | increased cAMP levels in the cells slightly | dose-dependent response; also recorded: a similar response to this peptide was apparent also in mock-transfected cells | this occurred also in mock-transfected cells | responded as well to 50% sucrose stimulations as control bees | 1.21±0.81 | 0.90±0.74 |  |  |
| CC(C)[C@@H]1NC(=O)[C@H](C)NC(=O)[C@H](CC(N)=O)NC(=O)[C@H](Cc2ccccc2)NC(=O)[C@H](C)NC(=O)[C@@H](NC(=O)[C@H](CCC(N)=O)NC(=O)[C@H](CCCCN)NC(=O)[C@H](Cc2c[nH]c3ccccc23)NC(=O)[C@H](Cc2ccc(O)cc2)NC(=O)[C@@H](N)CO)CSSC[C@@H](C(=O)N[C@@H](Cc2ccccc2)C(N)=O)NC(=O)[C@H](CO)NC1=O [Apime-ASTC] (H-SYWKQCAFNAVSCF-NH2; disulfide 6-13; N-terminus assumed) | did not change the bioluminescence levels |  | No effect |  | responded as well to 50% sucrose stimulations as control bees | 0.41±0.68 | -0.71±0.68 | failed to increase intracellular cAMP levels | failed to increase intracellular cAMP levels |
